Source: US20030134851A1, “Methods and compositions for providing glutamine” (priority 2001, published 2003)
Entries after “also recorded” stand apart in the source; their conditions may differ. Marks after values point to notes of the source that are not given here.

Test: Stability in liquid nutritional type products during retort sterilization and room temperature storage
Assay type: physicochemical
Description: In order to test the stability of N-acetyl-L-glutamine in a matrix similar to that found in liquid nutritional type products, the following procedure was followed. […] The product containing N-acetyl-L-glutamine was made according to the procedure set forth above in Example 1. The product containing glutamine was made in a similar manner, except […].79 kg) was substituted for N-acetyl-L-glutamine. The products were assessed for degradation before and after a retort sterilization process, which is typical for liquid nutritional processing (here, 128° C. for 5 minutes). The products were stored at room temperature (20-22° C.) and assessed for evidence of degradation at 1, 2 and 3 months. Glutamine, N-acetyl-L-glutamine and pyroglutamic acid (if present) were quantified at each process and time point. In order to analyze by HPLC for glutamine, N-acetyl-L-glutamine and pyroglutamic acid, samples were filtered as follows. A 5.0 mL aliquot was transferred to a 50 mL volumetric flask. Twenty drops of 1 M hydrochloric acid was added and the sample was diluted to volume with deionized water. An aliquot was filtered through a 0.45 micron filter (Millipore, Millex®-HV, 25 mm). The samples were analyzed by HPLC as described above (Heat Stability section). The total amount of pyroglutamic acid present in the protein formula, including both free pyroglutamic acid and N-terminal pyroglutamic acid, can be determined by the following method. Initially, samples were prepared as a water solution to a concentration of approximately 18 g total protein/L. A 20 microliter aliquot of the prepared sample material was placed in a 1.5 mL screw cap vial, and 980 microliters of a freshly prepared enzyme solution (0.05 M Tris, 0.005 M dithiothreitol, 0.001 M disodium ethylenediaminetetraacetic acid (EDTA), pH 8.0, containing 11 units of pyroglutamate aminopeptidase/mL) was added. The vial was tightly capped, and incubated at room temperature (21-24° C.) for 24 hours. The solution was then processed through a C-18 SPE cartridge as detailed below. For free pyroglutamic acid determination, the initial sample solution was diluted to a total protein content of 2-3 g/L in deionized water, and processed through a C-18 SPE cartridge. C-18 SPE (Solid Phase Extraction) cartridges (100 mg/1 mL size) were obtained from Burdick & Jackson, Muskegon, Mich. SPE cartridges were prepared for use with 2×5 volumes of methanol, and then rinsed with 2×5 volumes of deionized water. The 1 mL sample is then slowly applied, and flow-through material collected in a […] screw cap vial. Elution was completed by applying 2×500 microliters of deionized water, collecting pass through volume in the same vial. The eluate was mixed, and then an aliquot filtered through a 0.45 micrometer filter prior to HPLC analysis (25 mm, 0.45 micrometer filters were obtained from Gelman, Ann Arbor, Mich.). The HPLC system used had the following parameters: pump model G1312A, autosampler model G1313A, thermostatted column compartment model G1316A, diode array detector model G1315A, and peak integrator/data processor model […], all obtained from Agilent Technologies, Palo Alto, Calif. Column: 6.5×150 mm ION-310, 8 micrometer from Interaction Chromatography, San Jose, Calif. The system was pre-equilibrated in mobile phase (5 mN H2SO4) at 40° C. at 0.3 mL/min. prior to use. For analysis a 10 microliter aliquot of sample or standard was injected, and the column was eluted with mobile phase at 0.3 mL/min. and 40° C. Eluting materials were detected by UV absorption at 210 nm and 220 nm. The run time was 45 min. Unknown sample concentrations were determined by comparison to standards. Three aqueous solutions of pyroglutamic acid are usually sufficient as standards, i.e., 10, 20, and 40 mg/L (pyroglutamic acid obtained from Fluka, Milwaukee, Wis.).

[1] = 1 month at room temperature after sterilization
[2] = 2 months at room temperature after sterilization
[3] = 3 months at room temperature after sterilization
[4] = Post-Sterilization (retort, 128° C. for 5 minutes)

NC(=O)CC[C@H](N)C(=O)O [Glutamine, glutamine]
Glutamine in product with glutamine [1]: 13.7 mmol/L product | pyroglutamic acid in product with glutamine (1 month, calculated with response factor from glutamine standard): 92.9* mmol/L product | Glutamine in product with glutamine [2]: no glutamine was detected; also recorded: trace | pyroglutamic acid in product with glutamine (2 months, calculated with response factor from pyroglutamic acid standard): 79.8** mmol/L product | Glutamine in product with glutamine [3]: none | pyroglutamic acid in product with glutamine (3 months, calculated with response factor from pyroglutamic acid standard): 80.6** mmol/L product | Glutamine in product with glutamine [4]: 34.2 mmol/L product | pyroglutamic acid in product with glutamine (Post-Sterilization, calculated with response factor from glutamine standard): 77.5* mmol/L product | pyroglutamic acid in product with glutamine (Pre-Sterilization, calculated with response factor from glutamine standard): 27.1* mmol/L product | Glutamine remaining as fraction of the original concentration (glutamine supplemented product, after the sterilization process): about ⅓ | Glutamine in product with glutamine (liquid nutritional type product, Pre-Sterilization (theoretical 87.6)): 97.8 mmol/L product

CC(=O)N[C@@H](CCC(N)=O)C(=O)O [N-acetyl-L-glutamine]
N-acetyl-L-glutamine in product with N-acetyl-L-glutamine [1]: 89.8 mmol/L product | N-acetyl-L-glutamine in product with N-acetyl-L-glutamine [2]: 94.1 mmol/L product | N-acetyl-L-glutamine in product with N-acetyl-L-glutamine [3]: 89.3 mmol/L product | N-acetyl-L-glutamine in product with N-acetyl-L-glutamine [4]: 89.8 mmol/L product | Degradation in the liquid nutritional type product (in words) (during sterilization or after 3 months room temperature storage): no degradation | N-acetyl-L-glutamine in product with N-acetyl-L-glutamine (liquid nutritional type product, Pre-Sterilization (theoretical 87.7)): 92.5 mmol/L product
